Source: US5053408A, “Hexitol derivatives having vasodilative activity” (Kyowa Hakko Kogyo Co., Ltd., priority 1989, dated 1991)
Where a name gives a salt, the structure may show the parent alone. Read-outs that look alike come from different tables or passages of the source.

Experiments:
[1] = tested on: coronary vasospasm model (lysine-vasopressin); test: Effects on coronary vasospasm model (lysine-vasopressin test), inhibition of ST-segment elevation; format: in vivo, male Wistar rats; conditions: Rattus norvegicus, lysine-vasopressin 0.3 I.U./kg iv, MED = minimum dose with depression rate of 20% or higher
[2] = tested on: male dd-mice; test: Acute toxicity; conditions: mouse, in vivo, 10080 min; for MLD i.p.: ip; for MLD p.o.: po
Experimental: The compounds were orally administered and intraperitoneally administered to male dd-mice weighing 20 to 25 g. […] was determined by observing the mortality for seven days after the administration.

Structure (SMILES): O=[N+]([O-])O[C@H]1CO[C@H]2[C@@H]1OC[C@@H]2N1CCN(CCc2nc3ccccc3[nH]2)CC1 [Compound 57, 5-[4-[2-(Benzimidazol-2-yl)ethyl]piperazin-1-yl]-5-deoxy-1.4;3.6-dianhydro-L-iditol 2-nitrate hydrochloride]
- minimal effective dose ([1]; ip, 20 min before anesthetization, read-out: Coronary vasoconstriction model MED i.p.): < 25 mg/kg
- MLD i.p. [2]: > 100 mg/kg
- MLD p.o. [2]: > 300 mg/kg

Structure (SMILES): O=[N+]([O-])O[C@H]1CO[C@H]2[C@@H]1OC[C@@H]2N1CCN(CCCn2ccc3ccccc32)CC1 [Compound 27, 5-Deoxy-5-[4-[3-(indol-1-yl)propyl]piperazin-1-yl]-1.4;3.6-dianhydro-L-iditol 2-nitrate hydrochloride]
- minimal effective dose ([1]; po, 30 min before anesthetization, read-out: Coronary vasoconstriction model MED p.o.): < 30 mg/kg
- MLD i.p. [2]: > 100 mg/kg
- MLD p.o. [2]: > 300 mg/kg
